Test results published in ChEMBL document CHEMBL4118274, “Synthesis and biological evaluation of pyridine-linked indanone derivatives: Potential agents for inflammatory bowel disease” (Bioorg Med Chem Lett, 2018).
Calls of active or inactive are those of the source. No cut-off for these calls is given here.

Key:
[1] = target: Tumor necrosis factor (Homo sapiens) (UniProt P01375); assay: Inhibition of TNFalpha (unknown origin)-induced adhesion of BCECF fluorescence-labeled human U937 cells to human HT-29 cells at 10 uM measured at 3 hrs post TNFalpha stimulation relative to control
[2] = target: Tumor necrosis factor (Homo sapiens) (UniProt P01375); assay: Potency index, ratio of test compound activity to 5-aminosalicylate activity for inhibition of TNFalpha (unknown origin)-induced adhesion of BCECF fluorescence-labeled human U937 cells to human HT-29 cells
[3] = target: Tumor necrosis factor (Homo sapiens) (UniProt P01375); assay: Inhibition of TNFalpha (unknown origin)-induced decrease in E-cadherin expression in human HT-29 cells at 10 uM pretreated with cells for 1 hr followed by TNFalpha induction for 3 hrs by Western blot analysis; assay type: cell-based
[4] = target: Tumor necrosis factor (Homo sapiens) (UniProt P01375); assay: Inhibition of TNFalpha (unknown origin)-induced NFkappaB transcriptional activity in human HT-29 cells at 10 uM pretreated with cells for 1 hr followed by TNFalpha induction for 3 hrs by dual luciferase reporter gene assay; assay type: cell-based
[5] = target: Tumor necrosis factor (Homo sapiens) (UniProt P01375); assay: Inhibition of TNFalpha (unknown origin)-induced SNAIL expression in human HT-29 cells at 10 uM pretreated with cells for 1 hr followed by TNFalpha induction for 3 hrs by Western blot analysis; assay type: cell-based
[6] = test system: Rattus norvegicus; assay: In vivo of inhibition of TNFalpha-induced up-regulation of ICAM-1 expression in TNBS-induced colitis Sprague-Dawley rat model at 25 mg/kg/day, po administered on day of TNBS administration and on four consecutive days measured on day 6 by Western blot method; assay type: functional, organism-based
[7] = test system: Rattus norvegicus; assay: In vivo of inhibition of TNBS-induced increase in myeloperoxidase level in TNBS-induced colitis Sprague-Dawley rat model colon tissue at 25 mg/kg/day, po administered on day of TNBS administration and on four consecutive days measured on day 6; assay type: functional, organism-based
[8] = test system: Rattus norvegicus; assay: In vivo of inhibition of TNFalpha-induced SNAIL expression in TNBS-induced colitis Sprague-Dawley rat model at 25 mg/kg/day, po administered on day of TNBS administration and on four consecutive days measured on day 6 by Western blot method; assay type: functional, organism-based
[9] = test system: Rattus norvegicus; assay: In vivo of inhibition of TNBS-induced up-regulation of IL-1beta in TNBS-induced colitis Sprague-Dawley rat model at 25 mg/kg/day, po administered on day of TNBS administration and on four consecutive days measured on day 6 by Western blot method; assay type: functional, organism-based
[10] = test system: Rattus norvegicus; assay: In vivo of inhibition of TNBS-induced up-regulation of TNFalpha in TNBS-induced colitis Sprague-Dawley rat model at 25 mg/kg/day, po administered on day of TNBS administration and on four consecutive days measured on day 6 by Western blot method; assay type: functional, organism-based
[11] = target: Tumor necrosis factor (Homo sapiens) (UniProt P01375); assay: Inhibition of TNFalpha (unknown origin)-induced MCP-1 expression in human HT-29 cells at 10 uM preincubated with cells for 1 hr followed by TNFalpha induction of 3 hrs by Western blot analysis; assay type: cell-based
[12] = target: Tumor necrosis factor (Homo sapiens) (UniProt P01375); assay: Inhibition of TNFalpha (unknown origin)-induced ICAM-1 expression in human HT-29 cells at 10 uM preincubated with cells for 1 hr followed by TNFalpha induction of 3 hrs by Western blot analysis; assay type: cell-based
[13] = target: Tumor necrosis factor (Homo sapiens) (UniProt P01375); assay: Potency index, ratio of 5-aminosalicylate IC50 to test compound IC50 for TNFalpha (unknown origin)-induced adhesion of BCECF fluorescence-labeled human U937 cells to human HT-29
[14] = test system: Rattus norvegicus; assay: In vivo of inhibition of TNBS-induced decrease in body weight in TNBS-induced colitis Sprague-Dawley rat model at 25 mg/kg/day, po administered on day of TNBS administration and on four consecutive days measured on day 6; assay type: functional, organism-based
[15] = test system: Rattus norvegicus; assay: In vivo of inhibition of TNBS-induced increase in colon weight in TNBS-induced colitis Sprague-Dawley rat model at 25 mg/kg/day, po administered on day of TNBS administration and on four consecutive days measured on day 6; assay type: functional, organism-based
[16] = test system: Rattus norvegicus; assay: In vivo of inhibition of TNFalpha-induced up-regulation of MCP-1 expression in TNBS-induced colitis Sprague-Dawley rat model at 25 mg/kg/day, po administered on day of TNBS administration and on four consecutive days measured on day 6 by Western blot method; assay type: functional, organism-based
[17] = test system: Rattus norvegicus; assay: In vivo of inhibition of TNFalpha-induced decrease in E-cadherin expression in TNBS-induced colitis Sprague-Dawley rat model at 25 mg/kg/day, po administered on day of TNBS administration and on four consecutive days measured on day 6 by Western blot method; assay type: functional, organism-based
[18] = target: Tumor necrosis factor (Homo sapiens) (UniProt P01375); assay: Inhibition of TNFalpha (unknown origin)-induced adhesion of BCECF fluorescence-labeled human U937 cells to human HT-29 cells at 20 mM measured at 3 hrs post TNFalpha stimulation relative to control
[19] = test system: Rattus norvegicus; assay: In vivo of inhibition of TNBS-induced decrease in body weight in TNBS-induced colitis Sprague-Dawley rat model at 300 mg/kg/day, po administered on day of TNBS administration and on four consecutive days measured on day 6; assay type: functional, organism-based
[20] = test system: Rattus norvegicus; assay: In vivo of inhibition of TNBS-induced increase in myeloperoxidase level in TNBS-induced colitis Sprague-Dawley rat model colon tissue at 300 mg/kg/day, po administered on day of TNBS administration and on four consecutive days measured on day 6; assay type: functional, organism-based
[21] = test system: Rattus norvegicus; assay: In vivo of inhibition of TNBS-induced increase in colon weight in TNBS-induced colitis Sprague-Dawley rat model at 300 mg/kg/day, po administered on day of TNBS administration and on four consecutive days measured on day 6; assay type: functional, organism-based

Chain of Tumor necrosis factor (Homo sapiens) (P01375 whole entry): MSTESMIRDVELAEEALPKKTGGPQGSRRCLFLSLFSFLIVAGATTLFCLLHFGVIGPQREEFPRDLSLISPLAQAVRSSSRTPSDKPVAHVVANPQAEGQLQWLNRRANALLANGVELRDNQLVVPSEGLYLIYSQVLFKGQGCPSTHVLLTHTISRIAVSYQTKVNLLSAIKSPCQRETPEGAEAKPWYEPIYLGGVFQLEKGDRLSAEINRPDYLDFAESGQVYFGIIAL

## O=C1/C(=C/c2ccccn2)Cc2ccc(O)cc21
[1]
  inhibition: 54.8%
[2]
  Ratio: 7 to 23

## O=C1/C(=C/c2cccnc2)Cc2c(O)cccc21
[1]
  inhibition: 70.8%
[2]
  Ratio: 7 to 23
[3]
  inhibition: inactive
[4]
  inhibition: Active

## O=C1/C(=C/c2ccccn2)Cc2cc(O)ccc21
[1]
  inhibition: 58.1%
[2]
  Ratio: 7 to 23

## O=C1/C(=C/c2ccncc2)Cc2ccc(O)cc21
[1]
  inhibition: 85.5%
[5]
  inhibition: Active
[2]
  Ratio: 7 to 23
[6]
  inhibition: Active
[7]
  inhibition: Active
[8]
  inhibition: Active
[9]
  inhibition: Active
[10]
  inhibition: Active
[11]
  inhibition: Active
[12]
  inhibition: Active
[13]
  Ratio IC50: > 10000
[3]
  inhibition: Active
[14]
  inhibition: Active
[15]
  inhibition: Active
[16]
  inhibition: Active
[4]
  inhibition: Active
[17]
  inhibition: Active

## O=C1/C(=C/c2cccnc2)Cc2cccc(O)c21
[1]
  inhibition: 46.1%
[2]
  Ratio: 7 to 23

## O=C1/C(=C/c2ccccn2)Cc2cccc(O)c21
[1]
  inhibition: 46.2%
[2]
  Ratio: 7 to 23

## Nc1ccc(O)c(C(=O)O)c1
[18]
  inhibition: 52.1%

## O=C1/C(=C/c2ccncc2)Cc2cc(O)ccc21
[1]
  inhibition: 26.6%
[2]
  Ratio: 7 to 23

## O=C1/C(=C/c2ccccn2)Cc2c(O)cccc21
[1]
  inhibition: 64.5%
[2]
  Ratio: 7 to 23

## CCOc1cccc2c1C/C(=C\c1ccncc1)C2=O
[1]
  inhibition: 51.2%

## O=C1/C(=C/c2ccncc2)Cc2cccc(O)c21
[1]
  inhibition: 74.6%
[2]
  Ratio: 7 to 23
[3]
  inhibition: inactive
[4]
  inhibition: Active

## CC(C)Oc1ccc2c(c1)C(=O)/C(=C/c1ccncc1)C2
[1]
  inhibition: 45.7%

## O=C(O)c1cc(/N=N/c2ccc(S(=O)(=O)Nc3ccccn3)cc2)ccc1O
[19]
  inhibition: Active
[20]
  inhibition: Active
[21]
  inhibition: Active

## CC(C)Oc1cccc2c1C/C(=C\c1ccncc1)C2=O
[1]
  inhibition: 60.9%

## O=C1/C(=C/c2cccnc2)Cc2ccc(O)cc21
[1]
  inhibition: 74.7%
[2]
  Ratio: 7 to 23
[3]
  inhibition: inactive
[4]
  inhibition: Active

## COc1cccc2c1C/C(=C\c1ccncc1)C2=O
[1]
  inhibition: 5.9%

## COc1ccc2c(c1)C(=O)/C(=C/c1ccncc1)C2
[1]
  inhibition: 4.1%

## O=C1/C(=C/c2ccncc2)Cc2c(O)cccc21
[1]
  inhibition: 78%
[5]
  inhibition: Active
[2]
  Ratio: 7 to 23
[6]
  inhibition: Active
[7]
  inhibition: Active
[8]
  inhibition: Active
[9]
  inhibition: Active
[10]
  inhibition: Active
[11]
  inhibition: Active
[12]
  inhibition: Active
[3]
  inhibition: Active
[14]
  inhibition: Active
[15]
  inhibition: Active
[16]
  inhibition: Active
[4]
  inhibition: Active
[17]
  inhibition: Active

## CCOc1ccc2c(c1)C(=O)/C(=C/c1ccncc1)C2
[1]
  inhibition: 7.3%

## O=C1/C(=C/c2cccnc2)Cc2cc(O)ccc21
[1]
  inhibition: 67%
[2]
  Ratio: 7 to 23
